Paper PMC12865225 (Clinical and Translational Science, 2026)

Legend:
OATP2B1 = biological target: T1, OATP2B1 (Homo sapiens, UniProt O94956); experiment: OATP2B1 inhibition with fluorescent substrate 4′,5′-dibromofluorescein in HEK293 cells; type: cell-based; conditions: 1 µM 4′,5′-dibromofluorescein, 5 min, 30 min preincubation
T1 construct: expressed in transfected cells; host or cells: HEK293 (recombinant baculovirus-mediated transduction)
T1 sequence (O94956 1-709): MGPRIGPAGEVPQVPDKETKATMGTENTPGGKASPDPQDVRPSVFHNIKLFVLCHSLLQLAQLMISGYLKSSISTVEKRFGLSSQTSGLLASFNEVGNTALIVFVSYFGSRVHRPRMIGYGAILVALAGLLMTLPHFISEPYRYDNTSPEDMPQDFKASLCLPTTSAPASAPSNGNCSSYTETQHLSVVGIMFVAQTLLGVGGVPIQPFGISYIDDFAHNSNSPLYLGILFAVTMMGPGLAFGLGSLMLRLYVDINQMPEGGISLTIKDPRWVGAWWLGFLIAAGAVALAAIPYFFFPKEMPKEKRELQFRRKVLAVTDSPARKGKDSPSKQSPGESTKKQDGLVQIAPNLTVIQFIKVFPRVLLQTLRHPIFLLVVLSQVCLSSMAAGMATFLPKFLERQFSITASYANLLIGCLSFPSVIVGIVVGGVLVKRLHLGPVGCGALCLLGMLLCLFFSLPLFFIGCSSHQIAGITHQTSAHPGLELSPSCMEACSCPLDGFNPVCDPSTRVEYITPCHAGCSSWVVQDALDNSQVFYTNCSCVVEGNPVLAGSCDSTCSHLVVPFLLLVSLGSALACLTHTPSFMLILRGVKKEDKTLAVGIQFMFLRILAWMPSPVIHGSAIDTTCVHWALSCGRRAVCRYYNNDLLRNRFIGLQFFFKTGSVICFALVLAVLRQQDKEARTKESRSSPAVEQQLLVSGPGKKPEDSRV
Description: 8- (2- [Fluoresceinyl]aminoethylthio)adenosine- 3', 5'- cyclic monophosphate (8-Fluo-cAMP) was acquired from Biolog Life Science Institute (Bremen, Germany), 4′,5′-dibromofluorescein was acquired from Sigma-Aldrich (St. Louis, MO, USA) and 2′,7′-dichlorofluorescein was acquired from Santa Cruz Biotechnology (Dallas, TX, USA).
Inhibition studies with fluorescent substrates in OATP transduced HEK293 cells The concentrations of fluorescent probe substrates were 1 µM 2′,7′-dichlorofluorescein for OATP1B1, 2.5 µM 8-Fluo-cAMP for OATP1B3 and 1 µM 4′,5′-dibromofluorescein for OATP2B1, and these concentrations were selected to be within or below of previously reported […]
reported linear ranges of transport for these substrate-transporter combinations.1,2,4 8-Fluo-cAMP was dissolved in ultrapure water, while dimethyl sulfoxide (DMSO) was used for all other compounds. […] For the quantification of fluorescent substrates, cells were lysed with 120 µl of lysis solution (1% Triton X-100, 5 mM EDTA, 150 mM sodium chloride and 150 mM TRIC-hydrochloride and adjusted to pH 8 with sodium hydroxide) for 30 min at 300 RPM shaking before transferring 80 µl of samples to a transparent 96-well plate containing 20 µl of 0.5 M sodium hydroxide. […] The plates were measured with a fluorescent plate reader (Varioskan LUX from ThermoFisher Scientific). […]

MRP2 = test system: T2, MRP2; experiment: Efflux transport assay in MRP2 HEK293 membrane vesicles; type: biochemical, human; conditions: 5 and 50 µM, 10 min
T2 construct: made in house; host or cells: membrane vesicles from HEK293 cells expressing the transporter

Compound | IC50 (OATP2B1) [µM] | transport by MRP2 (MRP2)
Cc1onc(-c2c(Cl)cccc2Cl)c1C(=O)N[C@@H]1C(=O)N2[C@@H]1SC(C)(C)[C@@H]2C(=O)O [Dicloxacillin] | 37.6 | did not transport
Cc1onc(-c2c(F)cccc2Cl)c1C(=O)N[C@@H]1C(=O)N2[C@@H]1SC(C)(C)[C@@H]2C(=O)O [Flucloxacillin] | 76.4 | did not transport
